According to US20050239719A1, “Methods of using and compositions comprising thalidomide for the treatment and management of pulmonary hypertension” (priority 2004, published 2005):

How the values were obtained:
[1] = test system: patients with PH (NYHA functional class III); assay: Clinical Study 2: 12-week placebo-controlled study in patients with PH; type: in vivo, human
Procedure: In one embodiment of the invention, thalidomide is administered in a single or divided daily doses in an amount of from about 200 to about 800 mg/day. The compound is administered to patients with PH for 12 weeks, who are subsequently evaluated for a decline in walk distance, dyspnea score, functional class, pulmonary hemodynamic response. The first study enrolls 32 patients with PH. Patients are all in modified New York Heart Association functional class III at the onset of the study. Patents are maximally treated and are stable on conventional therapy, including calcium channel antagonists and diuretics. Two thirds of patients receive 400 mg of thalidomide for four weeks followed by 800 mg of the compound for eight weeks. One third of patients receive placebo. The primary efficacy endpoint is a 6-minute walk distance. Patients receiving the compound of the invention walk an average of 70 meters farther after 12 weeks while placebo patients have a decline in walk distance. In addition, the treated patients have improvements in dyspnea score and functional class compared with placebo patients. Pulmonary hemodynamic measurements reveal decreases in pulmonary arterial pressure and pulmonary vascular resistance, and increase in cardiac output after 12 weeks of the treatment, compared with worsening of pulmonary hemodynamics in placebo patients. All these changes in treated patients are highly significant compared with placebo.

[2] = test system: patients with PH, WHO functional class III or IV; assay: Expanded Study: 16-week placebo-controlled study in 213 PH patients; type: in vivo, human
Procedure: On the basis of the results of the above study 2, the clinical study is expanded with additional 213 PH patients for at least 16 weeks. The study is conducted with patients with PH, WHO functional class III or IV. Two hundred thirteen patients are randomized to receive either 200 mg bid or 400 mg bid of thalidomide or placebo in a 1:1:1 ratio. The primary endpoint, a 6-minute walk distance, is evaluated at 16 weeks. The treated patients walk 36.4 meters further at 16 weeks compared to a 7.8 meter reduction in walk distance in the placebo group, for a treatment effect of 44.2 meters. Clinical worsening, defined by death, premature withdrawal from study, hospitalization for worsening of PH or institution of epoprostenol, occur in 37% of placebo-treated patients, compared with 11% of the patients treated with the compound of the invention.

[3] = 12 weeks, compared with placebo patients
[4] = after 12 weeks of treatment, compared with placebo

Q: What does the source list for `O=C1CCC(N2C(=O)c3ccccc3C2=O)C(=O)N1` (racemic) [thalidomide, 2-(2,6-dioxo-3-piperidinyl)-1H-isoindole-1,3(2H)-dione]?
A: dyspnea score [1, 3]: improvements; functional class [1, 3]: improvements; cardiac output [1, 4]: increase; pulmonary arterial pressure [1, 4]: decreases; pulmonary vascular resistance [1, 4]: decreases; 6-minute walk distance, average increase ([1]; after 12 weeks, 400 mg for four weeks then 800 mg for eight weeks, PH patients): 70 meters; 6-minute walk distance, increase ([2]; at 16 weeks, 200 mg bid or 400 mg bid): 36.4 meters; 6-minute walk distance, treatment effect versus placebo ([2]; at 16 weeks, treated minus placebo (7.8 meter reduction)): 44.2 meters; clinical worsening (death, premature withdrawal, hospitalization for worsening of PH or institution of epoprostenol), share of patients ([2]; treated patients, 37% in placebo-treated patients): 11%; functional class ([2]; treated versus placebo patients): improved significantly more
